# Legend:
# [1] = test system: Mycosphaerella graminicola; Anamorph: Septoria tritici; Bayer Code SEPTTR; assay: Fungicidal activity: leaf blotch of wheat (SEPTTR), one-day protectant and three-day curative; format: in vivo, Septoria tritici on wheat plants (variety Yuma); details: wheat plants, rating of % disease control
# Description: Evaluation of Fungicidal Activity: Leaf Blotch of Wheat (Mycosphaerella graminicola; Anamorph: Septoria tritici; Bayer Code SEPTTR)
# Wheat plants (variety Yuma) were grown from seed in a greenhouse in 50% mineral soil/50% soil-less Metro mix until the first leaf was fully emerged, with 7-10 seedlings per pot. These plants were inoculated with an aqueous spore suspension of Septoria tritici either prior to or after fungicide treatments. After inoculation the plants were kept in 100% relative humidity (one day in a dark dew chamber followed by two to three days in a lighted dew chamber) to permit spores to germinate and infect the leaf. The plants were then transferred to a greenhouse for disease to develop.
# The following table presents the activity of typical compounds of the present disclosure when evaluated in these experiments. The effectiveness of the test compounds in controlling disease was determined by assessing the severity of disease on treated plants, then converting the severity to percent control based on the level of disease on untreated, inoculated plants.
# In each case of Table I the rating scale is as follows: […]
smiles,measurement,setting,value
"Cc1ccc(COc2ncc(F)c(NC(=O)c3ccccc3)n2)cc1 [Cmpd 1, N-(5-fluoro-2-(4-methylbenzyloxy)pyrimidin-4-yl)benzamide]",SEPTTR 100 PPM 1DP,[1]; One-Day Protectant (1DP),B (51-75)
same,SEPTTR 100 PPM 3DC,[1]; Three-Day Curative (3DC),A (76-100)
same,melting point,,93 to 95 °C

# From patent US20130045985A1, “N-(5-FLUORO-2-((4-METHYLBENZYL)OXY)PYRIMIDIN-4-YL)BENZAMIDE DERIVATIVES” (Dow AgroSciences LLC, priority 2011, published 2013)
